From PubChem BioAssay (NCI) come the findings set out here.

Some test systems named below: CCRF-CEM leukemia; COLO 205 colon; LOX IMVI melanoma; MDA-MB-231 breast; MDA-MB-435; NCI-H460 lung; NCI/ADR-RES ovarian; OVCAR-3 ovarian; SF-539 CNS; TK-10 renal.
What all share (test): inhibition of tumour cell growth, NCI panel, 48 h

Each structure is given as a SMILES string.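 Assay format: 96-well plates, 48-hour exposure. The concentration for 50% growth inhibition is given as GI50. TGI: total growth inhibition.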

For `O=[N+]([O-])c1ccc2[nH]nc(OCc3ccccc3Cl)c2c1`, the TGI in the assay with CCRF-CEM leukemia, with COLO 205 colon, in the assay with LOX IMVI melanoma, in the assay with MDA-MB-231 breast, in the assay with MDA-MB-435 and in the assay on NCI-H460 lung was above 100 µM throughout. For the same compound, the TGI is above 100 µM with NCI/ADR-RES ovarian, 73.9 µM in the assay with OVCAR-3 ovarian, 50.9 µM in the assay with SF-539 CNS and 61.3 µM with TK-10 renal.
On to `COc1ccc(CN2C(=O)/C(=C\c3cc(OC)c(OC)c(OC)c3)c3ccccc32)cc1`, for which the GI50 in the assay with CCRF-CEM leukemia was 1940 nM; in the assay with COLO 205 colon, 1890 nM; in the assay on LOX IMVI melanoma, 1760 nM; in the assay with MDA-MB-231 breast, 3.34 µM; with MDA-MB-435 it was 2090 nM; in the assay with NCI-H460 lung, 2080 nM. The GI50 is 2970 nM in the assay on NCI/ADR-RES ovarian, 1620 nM with OVCAR-3 ovarian, 2170 nM in the assay with SF-539 CNS and 1140 nM in the assay with TK-10 renal. For the same compound, the TGI is above 100 µM in the assay on CCRF-CEM leukemia; 3.44 µM in the assay with COLO 205 colon; 3.3 µM in the assay with LOX IMVI melanoma; above 100 µM in the assay on MDA-MB-231 breast; 5.08 µM with MDA-MB-435; 4.09 µM in the assay on NCI-H460 lung. Moreover, the TGI in the assay with NCI/ADR-RES ovarian was above 100 µM; in the assay on OVCAR-3 ovarian, 3.22 µM; in the assay on SF-539 CNS, 4.33 µM; with TK-10 renal, 4.33 µM.
Take `CCOC(=O)N1CCN(Cc2cc(=O)n3ccc(C)cc3n2)CC1`: the TGI with CCRF-CEM leukemia, with COLO 205 colon, in the assay with LOX IMVI melanoma, with MDA-MB-231 breast, in the assay on MDA-MB-435 and with NCI-H460 lung was above 100 µM throughout. Also, the TGI in the assay with NCI/ADR-RES ovarian, in the assay on OVCAR-3 ovarian, in the assay on SF-539 CNS and in the assay on TK-10 renal was above 100 µM throughout.
For `NS(=O)(=O)c1nnc(NC(=O)Nc2ccc(Cl)c(Cl)c2)s1`, the TGI with CCRF-CEM leukemia was 37.3 µM; in the assay on COLO 205 colon, 28.2 µM; in the assay with LOX IMVI melanoma, 36.4 µM; with MDA-MB-231 breast, 67.1 µM; with MDA-MB-435, 50 µM; with NCI-H460 lung, 55.3 µM. Moreover, the TGI in the assay on NCI/ADR-RES ovarian is 55.7 µM; with OVCAR-3 ovarian, above 100 µM; in the assay with SF-539 CNS, 34.1 µM; with TK-10 renal it was 43.9 µM.
With `CC(=O)Nc1nc(NC(C)=O)c2[nH]c(CO)nc2n1`, the TGI with CCRF-CEM leukemia, with COLO 205 colon, in the assay on LOX IMVI melanoma, in the assay on MDA-MB-231 breast, in the assay on MDA-MB-435 and with NCI-H460 lung was above 100 µM throughout. The TGI with NCI/ADR-RES ovarian, in the assay with OVCAR-3 ovarian, with SF-539 CNS and in the assay on TK-10 renal was above 100 µM in each case.
For `COc1ccc(-c2[nH]c3c4c(nc5c(c24)C(=O)CC(C)(C)C5)CC(C)(C)C3)cc1`, the TGI in the assay on CCRF-CEM leukemia, in the assay with COLO 205 colon, with LOX IMVI melanoma, in the assay on MDA-MB-231 breast, in the assay with MDA-MB-435 and with NCI-H460 lung was above 100 µM each time. The TGI in the assay with NCI/ADR-RES ovarian, with OVCAR-3 ovarian, in the assay on SF-539 CNS and with TK-10 renal was above 100 µM throughout.
Consider `S=C(N/N=C(/c1ccccc1)c1ccccn1)N(Cc1ccccn1)Cc1ccccn1`, for which the TGI is above 100 µM with CCRF-CEM leukemia; 2.02 µM in the assay on COLO 205 colon; 1.74 µM in the assay on LOX IMVI melanoma; 2.72 µM in the assay with MDA-MB-231 breast; 3.56 µM in the assay with MDA-MB-435; 4.7 µM with NCI-H460 lung. In addition, the TGI in the assay with NCI/ADR-RES ovarian came out at 1.44 µM; in the assay with OVCAR-3 ovarian, 1.71 µM; with SF-539 CNS, 3.45 µM; in the assay with TK-10 renal, 1.58 µM.
For `Nc1nccc(-c2c[nH]c3cc(Br)ccc23)n1`, the TGI is above 100 µM in the assay with CCRF-CEM leukemia; above 100 µM in the assay with COLO 205 colon; 53.4 µM with LOX IMVI melanoma; above 100 µM in the assay with MDA-MB-231 breast; 80.4 µM in the assay with MDA-MB-435; above 100 µM in the assay on NCI-H460 lung. In addition, the TGI with NCI/ADR-RES ovarian was above 100 µM; in the assay on OVCAR-3 ovarian, above 100 µM; in the assay on SF-539 CNS it was above 100 µM; in the assay on TK-10 renal, 59 µM.
With `Cc1ccnc(NS(=O)(=O)c2ccc(N=[N+]=[N-])cc2)n1`, the TGI in the assay on CCRF-CEM leukemia was above 49.7 µM; in the assay on COLO 205 colon, above 100 µM; in the assay on LOX IMVI melanoma, above 100 µM; in the assay with MDA-MB-231 breast it was above 100 µM; in the assay with MDA-MB-435, above 100 µM; with NCI-H460 lung it was above 100 µM. The TGI in the assay with NCI/ADR-RES ovarian, with OVCAR-3 ovarian, with SF-539 CNS and in the assay with TK-10 renal was above 100 µM each time.
Regarding `Cc1cc(-c2nc3ccc(F)cc3s2)ccc1NC(=O)[C@H](C)N`, the TGI in the assay on CCRF-CEM leukemia was found to be 6.23 µM; with COLO 205 colon, 23.8 µM; in the assay with LOX IMVI melanoma it was 3.99 µM; in the assay with MDA-MB-231 breast, 22.6 µM; in the assay on MDA-MB-435, 5.82 µM; with NCI-H460 lung it was 6.09 µM. Further, the TGI with NCI/ADR-RES ovarian is 28.5 µM; in the assay on OVCAR-3 ovarian it was 23.7 µM; with SF-539 CNS it was 14.9 µM; in the assay on TK-10 renal it was 5.11 µM.
